Paper PMC9571290, “Preliminary Structure–Activity Relationship Study of the MMV Pathogen Box Compound MMV675968 (2,4-Diaminoquinazoline) Unveils Novel Inhibitors of Trypanosoma brucei brucei” (Molecules, 2022)

Experiments:
in vitro = conditions: African green monkey
trypanosomes = test: intracellular ROS production (DCFDA); format: cell-based, Trypanosoma brucei brucei; conditions: 120 min; versus untreated parasites
Description: The production of ROS was detected using a 2′,7′–dichlorofluorescein diacetate (DCFDA) probe (Sigma–Aldrich) as described by Rea et al.. […] DCFDA (100 µL, 5 µM) was then added to the parasites, and incubation was pursued for 15 min at 37 °C. Hydrogen peroxide (H2O2 0.1% v/v) was used as a positive control for maximal ROS production, and wells with untreated parasites were included as a negative control. Of note, DCFDA is cleaved by ROS to produce fluorescent 2′,7′-dichlorofluorescein (DCF), of which the fluorescence intensity was measured at λex = 485 nm and λem = 520 nm. Data obtained from duplicate readouts were used to determine the ROS production percentage relative to the positive control (100% Production). % ROS production = (OD Test/OD control(H2O2)) × 100

SMILES	CC50 at 48 h (in vitro) [µM]	change in ROS production (trypanosomes)
COc1ccccc1NCc1ccc2nc(N)nc(N)c2c1 [Analog 7, 6-(((2-methoxyphenyl)amino)methyl)quinazoline-2,4-diamine]	24.8 ± 0.87	no significant change
Nc1nc(N)c2cc(CNc3cc(Cl)ccc3Cl)ccc2n1 [Analog 10, 6-(((2,5-dichlorophenyl)amino)methyl)quinazoline-2,4-diamine]	78.2 ± 0.8	no significant change
